Values of other authors, collected in US20060251722A1, “Multi-component vitamin and mineral supplement for the optimal absorption of components” (Novavax, Inc., priority 2005, published 2006).

Settings: rat, in vivo, po

bioavailability relative to other elemental iron forms: 2-5 times
Substance: carbonyl iron
